This is an account of results in US20250188040A1, “PHARMACEUTICAL COMPOSITIONS COMPRISING WRN HELICASE INHIBITORS” (Vividion Therapeutics, Inc., priority 2022, published 2025).

Where two headings read alike, the source gives them in different places. Bounds are passed on as bounds.

Assay [1] concerns the target T1, WRN C727 (Homo sapiens, UniProt Q14191).
T1 construct: endogenous in cells; host or cells: OCI-AML2
Nature of the assay: Target engagement, in situ (cell), OCI-AML2. It is filed as cell-based. To be noted: OCI-AML2 cells, read-out: OCI-AML2 WRN C727 TE50 in situ (cell). On the procedure:
Cells or cell lysates were treated with a dose response of compound followed by probe treatment, which labels solvent exposed cysteines. Proteins were enzymatically digested with trypsin and probe-labelled peptides were enriched with streptavidin. Isolated peptides were then separated using reversed-phase liquid chromatography on a C18 column (Dionex Ultimated 3000 nano-LC, Thermo). Peptides were analyzed by parallel reaction monitoring mass spectrometry (Exploris 120, Thermo).
Target engagement (%) is calculated relative to DMSO treated control samples.

Assay [2] addresses T1, WRN C727. In words: Target engagement, in vitro (lysate), OCI-AML2. In kind it is binding. To be noted: read-out: OCI-AML2 WRN C727 TE50 in vitro (lysate). The essentials: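 Percent engagement of WRN C727 is expressed against DMSO-treated samples, measured by PRM mass spectrometry of streptavidin-enriched, probe-tagged tryptic peptides. Compound dose responses preceded probe labelling of solvent-exposed cysteines, in either living OCI-AML2 cells or their lysates.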

In assay [3] the target is hWRN(519-1227)_C-H3CV-GFP-10His (Homo sapiens, UniProt Q14191). Nature of the assay: Helicase Assay for WRN Inhibition (ATP-dependent, fluorescence based).
Chain of hWRN(519-1227)_C-H3CV-GFP-10His (Q14191 519-1227): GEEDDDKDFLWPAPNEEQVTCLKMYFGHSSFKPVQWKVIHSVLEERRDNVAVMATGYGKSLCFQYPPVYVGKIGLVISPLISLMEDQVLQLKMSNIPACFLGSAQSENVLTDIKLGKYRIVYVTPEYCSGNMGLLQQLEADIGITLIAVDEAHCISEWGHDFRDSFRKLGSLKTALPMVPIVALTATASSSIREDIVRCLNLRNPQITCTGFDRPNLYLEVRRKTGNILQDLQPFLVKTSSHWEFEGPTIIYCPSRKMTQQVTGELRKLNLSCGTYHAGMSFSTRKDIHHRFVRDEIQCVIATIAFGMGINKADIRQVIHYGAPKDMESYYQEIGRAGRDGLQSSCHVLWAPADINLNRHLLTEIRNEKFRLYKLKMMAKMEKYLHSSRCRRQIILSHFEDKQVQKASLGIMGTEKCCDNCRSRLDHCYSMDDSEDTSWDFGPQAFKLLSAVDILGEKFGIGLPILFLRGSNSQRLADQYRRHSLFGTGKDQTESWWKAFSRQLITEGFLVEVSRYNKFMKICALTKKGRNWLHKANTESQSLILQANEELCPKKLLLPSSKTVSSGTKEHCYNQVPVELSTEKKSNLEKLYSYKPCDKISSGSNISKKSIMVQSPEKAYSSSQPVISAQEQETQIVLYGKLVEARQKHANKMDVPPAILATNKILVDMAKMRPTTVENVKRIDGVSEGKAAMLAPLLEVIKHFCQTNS
For the next assay, the system named is SW480 cells. Nature of the assay: Cell growth assay (CellTiter-Glo 2.0), SW480 MSS cell line. To be noted: Homo sapiens, SW480, 120 h, read-out: Cell Growth Inhibition GI50 SW480.
The next assay has as its system HCT 116 cells. In words: Cell growth assay (CellTiter-Glo 2.0), HCT 116 MSI-H cell line. Conditions: Homo sapiens, HCT-116, 120 h, read-out: Cell Growth Inhibition GI50 HCT-116. (In ATP-based viability assays light output follows the ATP content of the culture.)
Where [4] appears, read: WRN Helicase IC50, 30 min preincubation with ATP, 30 min reaction.

T1 sequence (Q14191 whole entry): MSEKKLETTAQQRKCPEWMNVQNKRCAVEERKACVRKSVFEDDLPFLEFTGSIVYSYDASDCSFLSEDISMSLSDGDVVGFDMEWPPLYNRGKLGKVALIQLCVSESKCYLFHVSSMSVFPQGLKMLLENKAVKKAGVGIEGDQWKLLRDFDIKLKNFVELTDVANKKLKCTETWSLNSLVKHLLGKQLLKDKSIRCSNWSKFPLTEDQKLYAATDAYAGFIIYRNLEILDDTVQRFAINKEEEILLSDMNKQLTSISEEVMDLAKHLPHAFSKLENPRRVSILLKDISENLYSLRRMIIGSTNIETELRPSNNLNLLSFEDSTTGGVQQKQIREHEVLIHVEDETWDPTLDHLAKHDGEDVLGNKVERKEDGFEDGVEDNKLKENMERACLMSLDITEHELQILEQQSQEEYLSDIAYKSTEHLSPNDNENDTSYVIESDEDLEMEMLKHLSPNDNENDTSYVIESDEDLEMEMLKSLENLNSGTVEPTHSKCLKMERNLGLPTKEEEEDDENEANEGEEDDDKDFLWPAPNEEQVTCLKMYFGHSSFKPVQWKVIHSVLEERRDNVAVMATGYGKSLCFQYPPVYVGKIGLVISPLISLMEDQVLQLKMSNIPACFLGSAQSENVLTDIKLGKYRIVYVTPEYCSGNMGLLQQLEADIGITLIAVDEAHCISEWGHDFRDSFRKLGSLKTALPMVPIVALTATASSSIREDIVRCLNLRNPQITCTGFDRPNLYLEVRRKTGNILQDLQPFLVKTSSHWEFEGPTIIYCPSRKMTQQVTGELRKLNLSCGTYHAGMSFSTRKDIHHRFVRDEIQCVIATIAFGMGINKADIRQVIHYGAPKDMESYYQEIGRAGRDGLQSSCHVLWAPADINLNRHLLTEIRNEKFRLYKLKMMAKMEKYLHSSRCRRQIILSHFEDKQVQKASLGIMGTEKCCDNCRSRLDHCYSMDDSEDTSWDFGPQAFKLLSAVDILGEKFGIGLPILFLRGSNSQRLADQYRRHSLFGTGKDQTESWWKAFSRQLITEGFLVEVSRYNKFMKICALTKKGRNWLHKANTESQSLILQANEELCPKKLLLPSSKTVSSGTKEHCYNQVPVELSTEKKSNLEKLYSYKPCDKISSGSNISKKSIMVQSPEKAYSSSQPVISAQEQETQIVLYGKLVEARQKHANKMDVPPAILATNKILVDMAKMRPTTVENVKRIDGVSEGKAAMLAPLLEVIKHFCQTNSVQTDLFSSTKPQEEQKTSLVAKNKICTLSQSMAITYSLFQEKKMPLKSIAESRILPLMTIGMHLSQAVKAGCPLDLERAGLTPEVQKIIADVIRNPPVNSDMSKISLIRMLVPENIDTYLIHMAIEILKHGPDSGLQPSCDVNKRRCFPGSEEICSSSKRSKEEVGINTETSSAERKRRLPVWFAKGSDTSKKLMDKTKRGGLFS

As for `C[C@@H](/C=C/S(C)(=O)=O)NC(=O)c1cnc(C2CCCC2)nc1Oc1cccc2ccccc12` [Example 139, (S,E)-2-cyclopentyl-N-(4-(methylsulfonyl)but-3-en-2-yl)-4-(naphthalen-1-yloxy)pyrimidine-5-carboxamide], the IC50 on WRN C727 [1] is more than 100 µM; at WRN C727 [2] it was more than 100 µM; in assay [3] (setting [4]), 192 µM.

In the case of `C[C@@H](/C=C/S(C)(=O)=O)NC(=O)c1cnc(C2CCCC2)nc1Oc1cc(Cl)cc(Cl)c1` [Example 123, (S,E)-2-cyclopentyl-4-(3,5-dichlorophenoxy)-N-(4-(methylsulfonyl)but-3-en-2-yl)pyrimidine-5-carboxamide], the IC50 is 20 µM at WRN C727 [1], more than 100 µM on WRN C727 [2] and 29 µM in assay [3] (setting [4]).

With `C[C@@H](/C=C/S(C)(=O)=O)NC(=O)c1cnc(-c2ccccc2)nc1Oc1ccccc1` [Example 80, (S,E)-N-(4-(methylsulfonyl)but-3-en-2-yl)-4-phenoxy-2-phenylpyrimidine-5-carboxamide], the IC50 on WRN C727 [1] was 20.4 µM; at WRN C727 [2], more than 100 µM; in assay [3] (setting [4]), 148 µM.

As for `CS(=O)(=O)/C=C/CNC(=O)c1cnc(N2CCCC2)nc1Oc1ccccc1` [Example 167, (E)-N-(3-(methylsulfonyl)allyl)-4-phenoxy-2-(pyrrolidin-1-yl)pyrimidine-5-carboxamide], the IC50 on WRN C727 [1] was 7.08 µM; on WRN C727 [2], more than 100 µM; in assay [3] (setting [4]), 15.6 µM.

Turning to `CCc1cccc(Oc2nc(C3CCCC3)ncc2C(=O)N[C@@H](C)/C=C/S(C)(=O)=O)c1` [Example 108, (S,E)-2-cyclopentyl-4-(3-ethylphenoxy)-N-(4-(methylsulfonyl)but-3-en-2-yl)pyrimidine-5-carboxamide], the figures for the IC50 (at WRN C727 [1]; on WRN C727 [2]; in assay [3] (setting [4])) were 50 µM, more than 100 µM and 87 µM, respectively.

Take `C[C@@H](/C=C/S(C)(=O)=O)NC(=O)c1cnc(C2CCCC2)nc1Oc1cc(F)cc(Cl)c1` [Example 122, (S,E)-4-(3-chloro-5-fluorophenoxy)-2-cyclopentyl-N-(4-(methylsulfonyl)but-3-en-2-yl)pyrimidine-5-carboxamide]: the IC50 at WRN C727 [1] was 8.07 µM; on WRN C727 [2] it was more than 100 µM; in assay [3] (setting [4]) it was 22 µM.

The GI50 is the concentration that inhibits growth by half. Take `C[C@@H](/C=C/S(C)(=O)=O)NC(=O)c1cnc(C2CCCC2)nc1OC1CCCC1` [Example 197, (S,E)-2-cyclopentyl-4-(cyclopentyloxy)-N-(4-(methylsulfonyl)but-3-en-2-yl)pyrimidine-5-carboxamide]: the IC50 on WRN C727 [2] is 6.24 µM; in assay [3] (setting [4]) it was 1.69 µM. Further, the values for the GI50 in the assay with SW480 cells and in the assay on HCT 116 cells were 6.19 µM and 709 nM, respectively.

With `C[C@@H](/C=C/S(C)(=O)=O)NC(=O)c1cnc(C2CCCC2)nc1Oc1ccc(F)cc1` [Example 113, (S,E)-2-cyclopentyl-4-(4-fluorophenoxy)-N-(4-(methylsulfonyl)but-3-en-2-yl)pyrimidine-5-carboxamide], the IC50 at WRN C727 [2] is 2.33 µM; in assay [3] (setting [4]), 1.8 µM. Also, the GI50 in the assay with SW480 cells is 6.2 µM; in the assay on HCT 116 cells, 1100 nM.

Regarding `COC(C)(C)c1ncc(C(=O)N[C@@H](C)/C=C/S(C)(=O)=O)c(Oc2ccccc2)n1` [Example 221, (S,E)-2-(2-methoxypropan-2-yl)-N-(4-(methylsulfonyl)but-3-en-2-yl)-4-phenoxypyrimidine-5-carboxamide], the IC50 at WRN C727 [2] worked out at 20 µM; in assay [3] (setting [4]), 8.3 µM. Moreover, the GI50 is 52 µM in the assay on SW480 cells and 2000 nM with HCT 116 cells.

`CS(=O)(=O)/C=C/[C@@H](NC(=O)c1cnc(CC2CC2)nc1Oc1ccccc1)C1CC1` [Example 36, (S,E)-N-(1-cyclopropyl-3-(methylsulfonyl)allyl)-2-(cyclopropylmethyl)-4-phenoxypyrimidine-5-carboxamide]: the IC50 at WRN C727 [2] was 0.45 µM; in assay [3] (setting [4]), 0.185 µM. Further, the GI50 is 17.7 µM in the assay on SW480 cells and 59 nM in the assay with HCT 116 cells.

`C[C@@H](/C=C/S(C)(=O)=O)NC(=O)c1cnc(CC2CCC2)nc1Oc1ccccc1` [Example 53, (S,E)-2-(cyclobutylmethyl)-N-(4-(methylsulfonyl)but-3-en-2-yl)-4-phenoxypyrimidine-5-carboxamide]: the IC50 on WRN C727 [2] amounted to 14.5 µM; in assay [3] (setting [4]), 3.6 µM. Further, the GI50 in the assay with SW480 cells is more than 10 µM; in the assay on HCT 116 cells it was 970 nM.

On to `CN(C)C(=O)C[C@@H](/C=C/S(C)(=O)=O)NC(=O)c1cnc(C(C)(F)F)nc1Oc1ccccc1` [Example 92, (S,E)-2-(1,1-difluoroethyl)-N-(5-(dimethylamino)-1-(methylsulfonyl)-5-oxopent-1-en-3-yl)-4-phenoxypyrimidine-5-carboxamide], for which the IC50 at WRN C727 [2] came out at 10 µM; in assay [3] (setting [4]), 1.1 µM. Further, the GI50 was found to be 43 µM with SW480 cells and 245 nM in the assay on HCT 116 cells.

As to `C[C@@H](/C=C/S(C)(=O)=O)NC(=O)c1cnc(OC2CCCC2)nc1Oc1ccccc1` [Example 165, (S,E)-2-(cyclopentyloxy)-N-(4-(methylsulfonyl)but-3-en-2-yl)-4-phenoxypyrimidine-5-carboxamide], the IC50 came out at 22.6 µM on WRN C727 [2] and 4.1 µM in assay [3] (setting [4]). In addition, the GI50 with SW480 cells was more than 10 µM; in the assay on HCT 116 cells, 2700 nM.

With `COC[C@@H](/C=C/S(C)(=O)=O)NC(=O)c1cnc(C2CCCC2)nc1Oc1ccccc1` [Example 10, (R,E)-2-cyclopentyl-N-(1-methoxy-4-(methylsulfonyl)but-3-en-2-yl)-4-phenoxypyrimidine-5-carboxamide], the IC50 on WRN C727 [2] came to 0.24 µM; in assay [3] (setting [4]), 0.13 µM. In addition, the GI50 worked out at 27.4 µM with SW480 cells and 72.4 nM with HCT 116 cells.

Take `CC(C)(C)c1ncc(C(=O)N2CC(=CS(=O)(=O)C3CCOCC3)C2)c(Oc2ccccc2)n1` [Example 62, (2-(tert-butyl)-4-phenoxypyrimidin-5-yl)(3-(((tetrahydro-2H-pyran-4-yl)sulfonyl)methylene)azetidin-1-yl)methanone]: the IC50 turned out to be 4.09 µM on WRN C727 [2] and 0.65 µM in assay [3]. The 50% growth inhibitory concentration (GI50) in the assay on SW480 cells is 13.2 µM; with HCT 116 cells, 265 nM.

For `CCOc1cc(C2CCCC2)ccc1C(=O)NC/C=C/S(C)(=O)=O` [Example 280, (E)-4-cyclopentyl-2-ethoxy-N-(3-(methylsulfonyl)allyl)benzamide], the IC50 on WRN C727 [1] was found to be 21.3 µM; on WRN C727 [2], 8.49 µM; in assay [3] (setting [4]) it was 62 µM.

For `CS(=O)(=O)C=C1CN(C(=O)c2cnc([C@H]3C[C@@H](C)C3)nc2Oc2ccccc2)C1` (single isomer, unassigned) [Example 50, (2-((1s,3s)-3-methylcyclobutyl)-4-phenoxypyrimidin-5-yl)(3-((methylsulfonyl)methylene)azetidin-1-yl)methanone], the IC50 on WRN C727 [2] was 0.28 µM; in assay [3], 0.22 µM. Moreover, the GI50 was 7.5 µM in the assay with SW480 cells and 94.7 nM in the assay with HCT 116 cells.

Take `CC(C)(C)c1ncc(C(=O)N[C@H](/C=C/S(C)(=O)=O)C2CCC2)c(Oc2ccccc2)n1` [Example 66, (S,E)-2-(tert-butyl)-N-(1-cyclobutyl-3-(methylsulfonyl)allyl)-4-phenoxypyrimidine-5-carboxamide]: the values for the IC50 (at WRN C727 [2]; in assay [3] (setting [4])) were 0.38 µM and 0.113 µM, respectively. The GI50 was 21.8 µM with SW480 cells and 30.2 nM in the assay on HCT 116 cells.

With `C[C@@H](/C=C/S(C)(=O)=O)NC(=O)c1cnc(C2CCCC2)nc1Oc1cccc(O)c1` [Example 136, (S,E)-2-cyclopentyl-4-(3-hydroxyphenoxy)-N-(4-(methylsulfonyl)but-3-en-2-yl)pyrimidine-5-carboxamide], the figures for the IC50 (at WRN C727 [2]; in assay [3] (setting [4])) were 18.5 µM and 11 µM, respectively. Further, the GI50 is more than 10 µM with SW480 cells and 5100 nM with HCT 116 cells.

On to `COC[C@H](/C=C/S(C)(=O)=O)NC(=O)c1cnc(C(C)(C)C)nc1Oc1ccccc1` [Example 64, (S,E)-2-(tert-butyl)-N-(1-methoxy-4-(methylsulfonyl)but-3-en-2-yl)-4-phenoxypyrimidine-5-carboxamide], for which the IC50 was more than 100 µM on WRN C727 [2] and 8.6 µM in assay [3] (setting [4]). The GI50 in the assay with SW480 cells turned out to be 36 µM; in the assay with HCT 116 cells, 2300 nM.

Take `C[C@@H](/C=C/S(C)(=O)=O)NC(=O)c1cnc(C2(F)CC2)nc1Oc1ccccc1` [Example 99, (S,E)-2-(1-fluorocyclopropyl)-N-(4-(methylsulfonyl)but-3-en-2-yl)-4-phenoxypyrimidine-5-carboxamide]: the IC50 on WRN C727 [2] came out at 10 µM; in assay [3] (setting [4]), 2 µM. Besides, the GI50 in the assay with SW480 cells stood at 40 µM; with HCT 116 cells it was 740 nM.

With `C[C@@H](/C=C/S(C)(=O)=O)NC(=O)c1cnc(CC2CCCC2)nc1Oc1ccccc1` [Example 54, (S,E)-2-(cyclopentylmethyl)-N-(4-(methylsulfonyl)but-3-en-2-yl)-4-phenoxypyrimidine-5-carboxamide], the IC50 amounted to 50 µM at WRN C727 [2] and 2.6 µM in assay [3] (setting [4]). Moreover, the GI50 with SW480 cells was more than 10 µM; in the assay on HCT 116 cells, 770 nM.
